Data on 25 molecules can be found in PubChem BioAssay AID1347040 (Sanford-Burnham Center for Chemical Genomics, 2019).

Activity calls are given as the source filed them.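 How the source made its calls: active means IC50 at or below 20 µM (some results past the limit were not filed as active); inactive means the rest.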

Chain of Fatty acid synthase (Homo sapiens) (P49327 whole entry, looked up): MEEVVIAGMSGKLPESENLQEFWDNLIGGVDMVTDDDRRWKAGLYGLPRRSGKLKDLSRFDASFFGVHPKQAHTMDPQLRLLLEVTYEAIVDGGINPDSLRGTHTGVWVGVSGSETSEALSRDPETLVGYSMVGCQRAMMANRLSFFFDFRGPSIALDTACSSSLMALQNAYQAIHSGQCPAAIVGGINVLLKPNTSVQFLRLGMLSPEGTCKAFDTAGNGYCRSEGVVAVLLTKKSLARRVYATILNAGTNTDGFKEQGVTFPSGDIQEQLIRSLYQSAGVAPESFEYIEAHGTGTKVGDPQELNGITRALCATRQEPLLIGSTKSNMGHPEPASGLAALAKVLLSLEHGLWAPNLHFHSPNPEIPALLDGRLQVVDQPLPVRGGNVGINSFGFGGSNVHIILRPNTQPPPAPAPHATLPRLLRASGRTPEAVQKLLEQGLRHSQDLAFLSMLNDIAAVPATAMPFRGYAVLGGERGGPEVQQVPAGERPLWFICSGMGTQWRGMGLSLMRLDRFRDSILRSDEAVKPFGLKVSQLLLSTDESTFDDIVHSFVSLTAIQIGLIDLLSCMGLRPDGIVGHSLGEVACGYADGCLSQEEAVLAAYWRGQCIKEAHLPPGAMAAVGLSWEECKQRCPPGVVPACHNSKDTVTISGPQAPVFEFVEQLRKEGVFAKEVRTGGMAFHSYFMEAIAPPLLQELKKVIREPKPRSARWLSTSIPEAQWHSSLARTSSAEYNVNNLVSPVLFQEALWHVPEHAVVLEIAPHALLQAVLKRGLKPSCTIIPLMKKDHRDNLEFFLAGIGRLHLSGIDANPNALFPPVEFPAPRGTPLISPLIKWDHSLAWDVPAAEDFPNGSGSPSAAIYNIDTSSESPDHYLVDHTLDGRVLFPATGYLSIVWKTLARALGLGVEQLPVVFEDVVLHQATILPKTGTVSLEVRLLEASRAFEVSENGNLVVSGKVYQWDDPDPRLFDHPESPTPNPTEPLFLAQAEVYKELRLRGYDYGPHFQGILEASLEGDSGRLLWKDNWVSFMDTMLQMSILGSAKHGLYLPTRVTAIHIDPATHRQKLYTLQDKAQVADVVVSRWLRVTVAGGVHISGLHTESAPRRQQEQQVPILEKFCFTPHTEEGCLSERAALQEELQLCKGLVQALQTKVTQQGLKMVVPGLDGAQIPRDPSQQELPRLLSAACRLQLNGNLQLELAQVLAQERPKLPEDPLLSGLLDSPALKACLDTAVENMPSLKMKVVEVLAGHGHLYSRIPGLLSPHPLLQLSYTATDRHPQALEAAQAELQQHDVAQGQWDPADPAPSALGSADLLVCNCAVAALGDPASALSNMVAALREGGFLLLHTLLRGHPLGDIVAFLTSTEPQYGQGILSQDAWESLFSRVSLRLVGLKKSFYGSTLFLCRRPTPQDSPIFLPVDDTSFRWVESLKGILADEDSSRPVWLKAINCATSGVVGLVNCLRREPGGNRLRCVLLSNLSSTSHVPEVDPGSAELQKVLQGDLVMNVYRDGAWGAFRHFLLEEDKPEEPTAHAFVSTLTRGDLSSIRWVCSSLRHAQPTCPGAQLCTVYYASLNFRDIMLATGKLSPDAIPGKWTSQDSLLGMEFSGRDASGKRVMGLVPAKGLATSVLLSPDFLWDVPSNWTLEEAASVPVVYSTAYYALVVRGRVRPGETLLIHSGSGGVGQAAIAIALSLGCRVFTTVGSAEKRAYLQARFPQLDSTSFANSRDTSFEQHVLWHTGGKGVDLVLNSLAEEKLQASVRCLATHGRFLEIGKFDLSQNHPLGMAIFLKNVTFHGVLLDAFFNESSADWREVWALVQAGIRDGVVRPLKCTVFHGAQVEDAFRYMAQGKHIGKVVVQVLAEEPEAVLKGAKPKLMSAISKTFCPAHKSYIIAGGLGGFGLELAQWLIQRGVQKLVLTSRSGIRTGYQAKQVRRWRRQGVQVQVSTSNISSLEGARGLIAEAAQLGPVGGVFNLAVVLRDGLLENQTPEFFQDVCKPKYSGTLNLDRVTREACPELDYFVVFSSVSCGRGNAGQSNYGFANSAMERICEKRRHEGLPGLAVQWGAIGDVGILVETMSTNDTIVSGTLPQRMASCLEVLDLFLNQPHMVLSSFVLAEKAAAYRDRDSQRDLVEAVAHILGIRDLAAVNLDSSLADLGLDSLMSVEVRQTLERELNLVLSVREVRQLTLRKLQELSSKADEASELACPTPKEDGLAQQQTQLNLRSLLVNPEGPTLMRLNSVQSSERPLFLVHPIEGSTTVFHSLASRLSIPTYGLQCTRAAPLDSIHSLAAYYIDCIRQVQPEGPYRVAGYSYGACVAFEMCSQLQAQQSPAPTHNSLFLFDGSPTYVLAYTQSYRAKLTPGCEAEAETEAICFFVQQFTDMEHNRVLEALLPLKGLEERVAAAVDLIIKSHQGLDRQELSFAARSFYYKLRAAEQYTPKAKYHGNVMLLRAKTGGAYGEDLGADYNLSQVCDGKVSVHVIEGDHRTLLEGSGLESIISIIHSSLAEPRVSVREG

This assay concerns the target Fatty acid synthase (Homo sapiens) (UniProt P49327). The experiment in a line: potency against FAS-TE enzyme – biochemical, fluorescence intensity, OMFH substrate, dose response (AID 1347040). Particulars: recombinant FAS-TE, OMFH fluorogenic substrate.
With `CCN(CC)S(=O)(=O)c1ccc(-c2csc(Cc3cccc(C(F)(F)F)c3)n2)cc1`, the IC50 (as a rule, the point on the concentration scale where inhibition reaches its midpoint) is 3.26 µM. Take `CCN(CC)S(=O)(=O)c1ccc(-c2csc(Cc3cccc(I)c3)n2)cc1`: the IC50 was 8.69 µM. As to `CCN(CC)S(=O)(=O)c1ccc(-c2csc(-c3ccc(Br)cc3C)n2)cc1`, the IC50 is 17.2 µM. For the molecule `CCN(CC)S(=O)(=O)c1ccc(-c2csc(-c3cccc(Br)c3)n2)cc1`, the 50% inhibitory concentration (IC50) was 5.04 µM. In the case of `O=C(Cc1ccc(S(=O)(=O)N2CCOCC2)s1)N1CCN(S(=O)(=O)c2ccc(F)cc2)CC1`, the IC50 result was “inactive”. The figure for `O=C(Cc1ccc(S(=O)(=O)N2CCOCC2)s1)N1CCN(S(=O)(=O)c2ccccc2)CC1` is 44.6 µM. In the case of `CCN(CC)S(=O)(=O)c1ccc(-c2csc(-c3ccc(F)cc3)n2)cc1` it was 0.5 µM; in that of `CCN(CC)S(=O)(=O)c1ccc(-c2csc(-c3ccc(Br)cc3)n2)cc1`, 10 µM. In the case of `CC(C)c1nc(-c2ccc(S(=O)(=O)N3CCOCC3)cc2)cs1` it was 5.8 µM.

As for `O=C(Cc1ccc(S(=O)(=O)N2CCOCC2)s1)NCc1ccccc1`, the IC50 is > 30 µM (inactive). The figure for `CCN(CC)S(=O)(=O)c1ccc(-c2csc(Cc3ccccc3F)n2)cc1` is 0.631 µM. For the molecule `CS(=O)(=O)N1CCN(C(=O)Cc2ccc(S(=O)(=O)N3CCOCC3)s2)CC1`, the IC50 is > 30 µM (inactive). Turning to `CCN(CC)S(=O)(=O)c1ccc(-c2csc(C(c3ccccc3)c3ccccc3)n2)cc1`, the half-maximal inhibitory concentration (IC50) was 5.28 µM. For `O=C(Cc1ccc(S(=O)(=O)N2CCOCC2)s1)N1CCN(S(=O)(=O)Cc2ccccc2)CC1`, the IC50 is > 30 µM (inactive). As for `CCc1nc(-c2ccc(S(=O)(=O)N(CC)CC)cc2)cs1`, the IC50 was 51.7 µM. Regarding `CC(C)(C)c1ccc(CNC(=O)Cc2ccc(S(=O)(=O)N3CCOCC3)s2)cc1`, the 50% inhibitory concentration (IC50) is 14.3 µM.

As for `CCN(CC)S(=O)(=O)c1ccc(-c2csc(Cc3ccccc3OC)n2)cc1`, the IC50 is 5.38 µM.

Consider `Cc1cc(C)c(S(=O)(=O)N2CCN(C(=O)Cc3ccc(S(=O)(=O)N4CCOCC4)s3)CC2)c(C)c1`, for which the IC50 is 33.2 µM.

For `O=S(=O)(c1ccc(-c2csc(-c3ccc(F)cc3)n2)cc1)N1CCOCC1`, the IC50 is 0.291 µM. With `CCN(CC)S(=O)(=O)c1ccc(-c2csc(Cc3cccc(F)c3)n2)cc1`, the half-inhibitory concentration (IC50) is 1.17 µM. The figure for `CCN(CC)S(=O)(=O)c1ccc(-c2csc(C(C)(C)C)n2)cc1` is 2.6 µM; for `CC(C)S(=O)(=O)N1CCN(C(=O)Cc2ccc(S(=O)(=O)N3CCOCC3)s2)CC1` it is > 30 µM (inactive). In the case of `CCN(CC)S(=O)(=O)c1ccc(-c2csc(C(C)C)n2)cc1`, the concentration for half-maximal inhibition (IC50) is 4.2 µM. In the case of `CCN(CC)S(=O)(=O)c1ccc(-c2csc(Cc3ccc(F)cc3)n2)cc1` it was 0.918 µM; in that of `CCN(CC)S(=O)(=O)c1ccc(-c2csc(-c3ccc(Cl)cc3)n2)cc1`, 10 µM.
